Paper PMC8348110, “A Novel Peptide Derived from the Transmembrane Domain of Romo1 Is a Promising Candidate for Sepsis Treatment and Multidrug-Resistant Bacteria” (International Journal of Molecular Sciences, 2021)
≈ marks a conversion by molar mass, not a printed value. Residues, ends and D or L forms follow the SMILES beside them.

Legend:
[1] = system: Methicillin-resistant S. aureus (MRSA) ATCC 33591; format: cell-based, Staphylococcus aureus
How it was run: (§1)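 1 h kill in 10 mM Na phosphate pH 7.4/1% TS broth; 5 × 10^5 CFU/mL; peptide 2-fold from 64 μg/mL; TS agar plating, 37 °C o/n; MBC read as lowest dose with zero colonies.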

[2] = system: Vancomycin-resistant S. aureus NCCP 15872; format: cell-based, Staphylococcus aureus; details: Vancomycin-resistant NCCP 15872, 1 h
How it was run: as §1

[3] = system: human embryotic kidney (HEK) 293 cells; format: cell-based
Experimental: Mammalian cell viability was measured using a 3-(4,5-dimethylthiazol-2-yl)-2,5-diphenyltetrazolium bromide (MTT) assay in HeLa and HEK 293 cells. Cells were cultured on 96-well plates and incubated separately with AMPR-11, AMPR-21, AMPR-22, magainin 2, or daptomycin. After incubation for an hour, the cells were incubated with MTT solution (2 mg/mL of MTT in PBS) for an hour, and the media were removed, and dimethyl sulfoxide was added to allow the MTT formazans to solubilize. The optical density was measured using a SpectraMax Plus 384 microplate reader (Molecular Devices, San Jose, CA, USA) at 550 nm.

[4] = system: human PBMCs; test: White blood cell toxicity assay (LIVE/DEAD stain, flow cytometry); format: cell-based; details: freshly isolated PBMCs, 0 to 256 μg/mL for 30 min
Experimental: (§2) For the hemolytic assay, mouse and human whole blood was diluted with PBS (pH 7.4) and centrifuged for 10 min at 500× g. After removing the supernatant and rinsing the pellet three times with PBS, we resuspended the erythrocytes in PBS at 2% volume. The blood solution was added to the solution of peptides with two-fold serial dilution on a 96-well plate. After incubation for an hour at 37 °C, the plate was centrifuged at 2500× g for 10 min, and the absorbance of the supernatant was measured at 550 nm. The PBS-treated sample was the negative control, and the 0.1% Triton X-100–treated sample was the positive control. To measure white blood cell toxicity, mouse and human PBMCs were freshly isolated as previously described, and 70% ethanol (positive control) or AMPR-22 was administered using two-fold diluted concentrations (0 to 256 μg/mL) for 30 min. To measure cell death, a LIVE/DEAD® fixable green dead cell stain kit (Thermo Fisher Scientific, Waltham, MS, USA) was used following the manufacturer′s instructions, and flow cytometry was performed using a FACS Canto II (BD Biosciences, CA, USA). The toxicity of AMPR-22 was compared with negative (PBS-treated) and positive controls, and the data were analyzed using FlowJo software (Tree Star, OR, USA).

[5] = system: mouse PBMCs; test: as above; format: cell-based; details: freshly isolated PBMCs, 0 to 256 μg/mL for 30 min
Experimental: as §2

[6] = system: P. aeruginosa; details: mouse, iv, 40 mg/kg
Experimental: Figure 4 The antibacterial activity of AMPR-22 in various physiological conditions. (A,B) Effects of AMPR-22 activity in mouse plasma and human serum. AMPR-22 was incubated with blood components for the indicated times (0, 15, 30, 60, 90, 120, 150, and 180 min) and then with P. aeruginosa or S. aureus for an hour. (C,D) Effects of AMPR-22 activity in low-density lipoprotein (LDL), high-density lipoprotein (HDL), and bovine serum albumin. AMPR-22 was incubated with blood components for the indicated times (0, 30, 60, 120, and 180 min) and then with P. aeruginosa or S. aureus for an hour. (E) Effects of AMPR-22 activity in whole blood. AMPR-22 was incubated with mouse and human whole blood for the indicated times (0, 30, 60, 90, 120, and 180 min) and then with P. aeruginosa for an hour. (F,G) The antibacterial activity of AMPR-22 in vivo. […] (F) The relative CFU in blood samples was calculated using the following formula: CFU at indicated time ÷ CFU at 0 min × 100 (%). […] The antibacterial activity was measured using a colony-forming unit assay. […]
We used the CFU counting method to measure antibacterial activity, with all bacteria cultured to the mid-log phase in an appropriate broth medium. Bacterial CFUs were counted after overnight culture at 37 °C on TS or LB agar plates. The MBC value and antibacterial activity in blood components were determined as previously described. […]

CC[C@H](C)[C@H](NC(=O)CNC(=O)CNC(=O)[C@@H](NC(=O)[C@H](C)NC(=O)[C@H](CCSC)NC(=O)[C@H](Cc1ccccc1)NC(=O)[C@@H](NC(=O)CNC(=O)[C@H](Cc1ccccc1)NC(=O)[C@H](CCCCN)NC(=O)CNC(=O)CNC(=O)[C@H](CCCCN)NC(=O)[C@H](CCCCN)NC(=O)[C@H](CCSC)NC(=O)[C@H](CCSC)NC(=O)[C@H](CCCCN)NC(=O)[C@@H](N)CCCCN)[C@@H](C)O)[C@@H](C)CC)C(=O)N[C@@H](CCCNC(=N)N)C(=O)O [AMPR-22] (H-KKMMKKGGKFGTFMAIGGIR-OH)
MBC Value, MRSA ([1]; ATCC 33591, 1 h): 2 µg/mL (≈ 0.915 µM)
MBC Value, Methicillin-resistant S. aureus ([1]; Table 2, ATCC 33591, modified MBC): 2 µg/mL (≈ 0.915 µM)
MBC Value, Vancomycin-resistant S. aureus [2]: 4 µg/mL (≈ 1.83 µM)
Cytotoxicity, HEK 293 cells [3]: slight cytotoxicity
Cytotoxic activity against human leukocytes [4]: negligible cytotoxic activity
Cytotoxic activity against mouse leukocytes [5]: negligible cytotoxic activity
Antibacterial activity maintained 37 min after peptide injection ([6]; in vivo): more than 50%
Functional half-life in vivo [6]: around 37 min
